Series [1] in a line: Log P (partition coefficient). It is filed as physicochemical. From the text:
(§1) Tables 2A-D show release rates of octreotide from three different classes of polyurethane compounds (Tecophilic®, Tecoflex® and Carbothane®). The release rates have been normalized to surface area of the implant, thereby adjusting for slight differences in the size of the various implantable devices. Octreotide is water-soluble as indicated by the Log P value; for the purposes of the data provided, a Log P value of greater than about 2.0 is considered to be not readily soluble in aqueous solution. The polyurethanes were selected to have varying affinities for water soluble active agents and varying flexibility (as indicated by the variation in flex modulus).
The solubility of an active agent in an aqueous environment can be measured and predicted based on its partition coefficient (defined as the ratio of concentration of compound in aqueous phase to the concentration in an immiscible solvent). The partition coefficient (P) is a measure of how well a substance partitions between a lipid (oil) and water. The measure of solubility based on P is often given as Log P. In general, solubility is determined by Log P and melting point (which is affected by the size and structure of the compounds). Typically, the lower the Log P value, the more soluble the compound is in water. […]

Series [2] can be described thus: Release rate of octreotide from polyurethane implantable devices. Format: physicochemical. As to conditions: Tecophilic HP-60D-05, 5.5% EWC.
Description: as §1
Polyurethanes are available or can be prepared, for example, with a range of EWCs or flex moduli (Table 2). Tables 2A-B show normalized release rates for various active ingredients from polyurethane compounds. Tables […] show the non-normalized release rates for the same active ingredients, together with implant composition.

The values below come from US20210161994A1, “IMPLANTABLE DEVICE FOR THE DELIVERY OF OCTREOTIDE AND METHODS OF USE THEREOF” (Endo Pharmaceuticals Solutions Inc., priority 2008, published 2021).

In series [1], `C[C@@H](O)[C@@H]1NC(=O)[C@H](CCCCN)NC(=O)[C@@H](Cc2c[nH]c3ccccc23)NC(=O)[C@H](Cc2ccccc2)NC(=O)[C@@H](NC(=O)[C@H](N)Cc2ccccc2)CSSC[C@@H](C(=O)N[C@H](CO)[C@@H](C)O)NC1=O` [Octreotide Acetate] displayed a lipophilicity (logP) of 0.43. The same compound displayed a non-normalized release rate in series [2] of 0. In addition, the “release rate normalized to surface area of the implant” value in series [2] (10% HPC, 2% SA, 50 mg API) is 0.
